Experimental data from US20200080052A1, “METHOD OF REDUCING CHROMOSOME SEGREGATION ERROR IN CELLS OF THE EARLY EMBRYO” (CENTRE HOSPITALIER DE L'UNIVERSITÉ DE MONTRÉAL, priority 2018, published 2020).

How the values were obtained:
[1] = test system: oocytes; assay: Polar body extrusion (PBE) of meiosis-I in microinjected oocytes; type: cell-based, mouse; settings: oocytes microinjected with Mad2 MO vs Control MO
[2] = test system: mouse embryos; assay: Culture to blastocyst and immunofluorescence analysis (development, cell numbers, micronuclei per cell); type: cell-based; settings: for number of micronuclei compared to controls: P<0.01; for micronuclei per cell in blastocyst: 2-cell stage to blastocyst, controls 0.022, P<0.05
Description: (§1) Embryo collection, culture and chemical treatments. All experiments were approved by the Centre de Recherche du Centre Hospitalier de l'Université de Montréal (CRCHUM) Comité Institutionnel de Protection des Animaux (CIPA). Two-cell embryos were obtained from superovulated 2-3-month-old CD-1 female mice mated with CD-1 males. Embryos were collected in M2 media and cultured in KSOM media drops covered in mineral oil at 37° C. in 5% CO2. For chemical treatments, media was supplemented with the following compounds: AZ3146 (20 μM), GSK923295 (various concentrations), nocodazole (various concentrations), Cytochalasin B (5 μg/ml), MG132 (25 μM), proTAME (various concentrations). All drug stocks are dissolved in DMSO. For experiments involving proTAME, embryos were cultured without oil in 500 μL of media in 4-well plates.
(§2) Z-stack images of embryos (˜50 μm) with step size 2 μm were obtained at a time interval of 30 sec for experiments concerning H2BRFP only, 2 min for H2B:RFP-GAP43:GFP, and 3 min H2B:RFP-Mad1:EGFP experiments. For live-cell experiments at two-cells, eight cell, morula and blastocyst, imaging was started at ˜48 h, 72 h, 84 h and ˜96 h post-hCG administration and mating, respectively. For immunofluorescence embryos were fixed in 2% PFA in PBS (20 min) and permeabilised in 0.25% Triton™ X-100 in PBS (10 min), for Mad2 immunofluorescence embryos were fixed for 15 min in PHEM buffer containing 2% PFA and 0.05% Triton™ X-100, and permeabilised in 0.05% Triton™ X in PHEM buffer for 15 min. Blocking was performed in 3% bovine serum albumin in PBS, for 1 hr at 37° C. or overnight at 4° C. Primary antibodies used were rabbit anti-Mad2 (1:300), mouse anti-alpha-Tubulin (1:1000), anti-rabbit and anti-mouse AlexaFluor secondaries were used at 1:1000 dilution. Alexa-555-Phalloidin (1:300) and Hoechst (1:1000) were used to visualize F-actin and DNA, respectively. Briefly, immunofluorescence confocal imaging was performed on a Leica™ SP8 microscope using a 63×1.4 NA oil objective lens, using a 1.5 μm optical section and acquiring Z-stacks with a step size of 1.5 μm, described in more detail in (Vázquez-Diez et al., 2018). In fixed-cell experiments involving GSK923295 and nocodazole embryos were exposed from the 8-cell stage, ˜72 h post-hCG and mating for ˜16 h and immediately fixed. Blastocyst immunofluorescence analysis was performed at late blastocyst stage, ˜120 h post-hCG.
(§3) All image analysis was performed using Fiji software. Time-lapse Z-stacks were examined to determine mitosis duration and identify chromosome alignment and segregation errors. Spindle length measurements were performed measuring the distance between spindle poles, using Pythagoras' theorem where spindle poles were located on different Z-slices. Mad2 Immunofluorescence was quantified by subtracting nuclear envelope and background maximum grey values. To calculate cell volume for each cell at metaphase, areas delineated by the cell membrane (GAP43:GFP signal) were manually traced and measured at each Z-slice, the sum of the areas was multiplied by the step size (2 μm). All data analysis was performed using GraphPad™ Prism, statistical test used were accordingly noted in figures, α=0.05.

[3] = test system: mouse embryos; assay: Live imaging of chromosome segregation dynamics in H2B:RFP-expressing embryos; type: cell-based; settings: for change in mitosis duration: 10 nM nocodazole
Description: as §1
(§4) All imaging was performed on a Leica™ SP8 confocal microscope with HyD detectors. For live imaging embryos were placed in a heated top-stage incubator with CO2 supply and imaged with a 20×0.75 NA objective as previously described (Vázquez-Diez et al., 2016). All imaging was performed in ˜2 μL drops under mineral oil, for experiments involving proTAME, embryos were cultured in Ibidi micro-insert wells mounted on a glass-bottom dish with distilled water and the inventors' setup was modified to provide humidified CO2 gas supply, previously described in extensive detail (Vázquez-Diez et al., 2018).
as §2, §3

[4] = test system: mouse embryos; assay: Cytoplasmic removal and live imaging of H2B:RFP-GAP43:GFP embryos (mitosis duration vs cell volume); type: cell-based; settings: 10 nM nocodazole, un-manipulated or cytoplasmically reduced
Description: (§5) All micromanipulations were performed on a Leica™ DM14000 inverted microscope fitted with Narashige micromanipulators. […] Embryos where thoroughly washed in over a dozen drops of M2 media prior to transfer and incubation in equilibrated KSOM medium for at least 2 hours prior to imaging to allow them to recover from the cytoplasmic removal procedure. Microinjections were performed as described previously (Nakagawa and FitzHarris, 2016; Vázquez-Diez and FitzHarris, 2018; Vázquez-Diez et al., 2016). cRNA was synthesized using mMessenger Machine kit (Ambion) as previously (Nakagawa et al., 2017; Vázquez-Diez et al., 2018), from the following plasmids; pRN4-H2B:RFP, psC2-GAP43:GFP, MajSatTALE:mClover (pTALYM3B15)(Miyanari et al., 2013).
All imaging was performed on a Leica™ SP8 confocal microscope with HyD detectors. For live imaging embryos were placed in a heated top-stage incubator with CO2 supply and imaged with a 20×0.75 NA objective as previously described (Vázquez-Diez et al., 2016). […]
All image analysis was performed using Fiji software. […] Mad2 Immunofluorescence was quantified by subtracting nuclear envelope and background maximum grey values. To calculate cell volume for each cell at metaphase, areas delineated by the cell membrane (GAP43:GFP signal) were manually traced and measured at each Z-slice, the sum of the areas was multiplied by the step size (2 μm). […]

[5] = test system: mouse embryos; assay: Fixed-cell analysis of embryos after ~16 h exposure from the 8-cell stage (mitotic index, misaligned chromosomes, Mad2); type: cell-based; settings: for metaphase cells with multiple misaligned chromosomes: morulae, 16 hour exposure
Description: as §1, §2, §3

[6] = test system: mouse embryos; assay: Live imaging of H2B:RFP and Mad1:EGFP-expressing embryos; type: cell-based; settings: 500 nM GSK923295
Description: as §5
as §4, with “2018). […]” for “2018).”

[7] = proTAME 0.01 nM-100 nM from the 2-cell stage
[8] = 500 nM GSK923295, 8-16 cell transition

“Mad2 MO: morpholino oligonucleotide against Mad2, 5′-GCTCTCGGGCGAGCTGCTGTGCCAT-3′ (Gene tools LLC) (all phosphorodiamidate morpholino (PMO))” was tested, and the “timing of meiosis-I (polar body extrusion)” value [1] was “characteristic acceleration of meiosis-I”, the blastocyst cell numbers ([2]; Mad2 MO microinjected) was “Neither treatment prevented development to blastocyst or altered cell numbers” and the development to blastocyst ([2]; Mad2 MO microinjected) was “Neither treatment prevented development to blastocyst”. For the same molecule, the “number of micronuclei compared to controls” value ([2]; Mad2 MO-injected embryos vs Control MO) was “doubled”.

With `COC(=O)Nc1nc2ccc(C(=O)c3cccs3)cc2[nH]1` [nocodazole] the “change in mitosis duration” value ([3]; blastocysts (~32-64 cell stage)) was “prolonged mitosis appreciably”, the “change in mitosis duration” value ([3]; morulae (8-16 cell stage)) was “only a minimal extension of mitosis” and the “change in mitosis duration” value ([3]; two-cell stage) was “prolonged mitosis appreciably”. The Anaphase lagging chromosomes ([3]; nocodazole-treated (10 nM) morulae) was 19 % of divisions, the “change in mitosis duration” value ([4]; morulae) was “not in morulae” and the “change in mitosis duration” value ([4]; two-cell stage) was “extended mitosis at the two-cell stage”. The mitotic index ([5]; 100 nM nocodazole, 16-hour exposure) was 40%, the mitotic index ([5]; 1 μM nocodazole, 16-hour exposure) was 95% and the Mad2 at kinetochores ([5]; nocodazole-treated cells) was “Mad2 was evident at kinetochores”.

`Cc1ncc([N+](=O)[O-])n1CCOC(=O)NC(Nc1ncccn1)C(Cl)(Cl)Cl` (stereo not drawn) [APCin] was tested, and the micronuclei ([2]; APCin 10 μM) was “reduction in micronuclei”.

With `COC(=O)[C@H](CCCN/C(=N\C(=O)OCOC(=O)Cc1ccccc1)NC(=O)OCOC(=O)Cc1ccccc1)NS(=O)(=O)c1ccc(C)cc1` [proTAME] the “extension of mitosis duration” value ([3]; 10 nM proTAME vs DMSO) was 19%, the “increase in duration of mitosis” value ([3]; 10 nM proTAME vs DMSO) was ~10 min and the “incidence of misaligned chromosomes at anaphase onset” value ([3]; 10 nM proTAME, control 28%, P=0.025) was 16%. For the same molecule, the duration of mitosis ([3]; 10 nM proTAME, morula stage, control 51.7±1.4, P<0.0001) was 61.7 ± 2.3 min, the “micronuclei per cell in blastocyst” value ([2]; 10 nM proTAME) was 0.013 micronuclei per cell and the “micronuclei per cell in blastocyst” value ([2]; "nM" proTAME (figure missing)) was 0.012 micronuclei per cell. For the same molecule, the blastocyst cell number [2, 7] was “did not affect blastocyst cell number”, the “embryo development to blastocyst” value [2, 7] was “permissive of development to blastocyst” and the “embryo development to blastocyst” value ([2]; proTAME 1-10 μM from the 2-cell stage) was “prevented embryo development to blastocyst”.

In the case of `CC(C)Oc1ccc(C(=O)N[C@H](CNC(=O)CN(C)C)Cc2ccc(-c3cn4cccc([C@H](C)O)c4n3)cc2)cc1Cl` [GSK923295], the “number of severely misaligned chromosomes at anaphase onset (span, all cases)” value [3, 8] is reported as “at least one, and as many as nine”, the “severely misaligned chromosomes at anaphase onset (mean)” value [3, 8] is reported as 3.6±0.3 per cell and the “NEBD to metaphase and metaphase to anaphase times” value ([3]; 500 nM GSK, eight- to sixteen-cell division) is reported as “extended”. For the same molecule, the “misaligned chromosomes at anaphase onset harbouring Mad1:GFP at kinetochores” value [6] was 80%, the “misaligned chromosomes at anaphase onset (mean)” value ([6]; H2B:RFP and Mad1:EGFP-expressing embryos) was 3.5±0.4 per cell and the mitotic index ([5]; 500 nM GSK923295) was 23%. For the same molecule, the “metaphase cells with multiple misaligned chromosomes” value ([5]; 500 nM GSK923295) was 93%, the “mitotic arrest with simultaneous nocodazole” value ([5]; 1 μM nocodazole + 500 nM GSK923295, 16 hr) was “mounted a robust mitotic arrest” and the mitotic index ([5]; 5 μM GSK923295) was 12%. The “metaphase cells with multiple misaligned chromosomes” value ([5]; 5 μM GSK923295) was 100%.

In the case of AZ3146, the duration of mitosis ([3]; 20 μM AZ3146, 16-32C transition, control 53±3 mins, P<0.0001) is reported as 33 ± 1 min, the “chromosomes remaining misaligned at anaphase onset” value ([3]; 20 μM AZ3146, control 24%, P<0.0001) is reported as 63% and the blastocyst cell numbers ([2]; AZ3146 (20 μM)) is reported as “Neither treatment prevented development to blastocyst or altered cell numbers”. For the same molecule, the development to blastocyst ([2]; AZ3146 (20 μM)) was “Neither treatment prevented development to blastocyst”, the “number of micronuclei compared to controls” value ([2]; AZ3146-treated embryos) was “doubled” and the “reversal of nocodazole-induced mitotic arrest” value ([5]; 100 nM nocodazole and 20 μM AZ3146) was “the arrest was reversible”.
